In ChEMBL document CHEMBL4610045, “Selective acetylcholinesterase inhibitors derived from muscle relaxant dantrolene” (Bioorg Med Chem Lett, 2020):
Where a name gives a salt, the structure may show the parent alone. The source made the active and inactive calls. No cut-off for these calls is given here.

What was measured:
[1] = biological target: T1, BuChE (butyrylcholinesterase) (Homo sapiens, UniProt P06276); assay: Inhibition of BuChE (unknown origin) at 20 nM relative to control
[2] = biological target: T1, BuChE (butyrylcholinesterase); assay: (§1) Inhibition of BuChE (unknown origin) at 1 uM relative to control
[3] = biological target: T2, Acetylcholinesterase (Homo sapiens, UniProt P22303); assay: Inhibition of AChE (unknown origin) using acetylthiocholine iodide as substrate by Ellman's method
T2 sequence (P22303 whole entry): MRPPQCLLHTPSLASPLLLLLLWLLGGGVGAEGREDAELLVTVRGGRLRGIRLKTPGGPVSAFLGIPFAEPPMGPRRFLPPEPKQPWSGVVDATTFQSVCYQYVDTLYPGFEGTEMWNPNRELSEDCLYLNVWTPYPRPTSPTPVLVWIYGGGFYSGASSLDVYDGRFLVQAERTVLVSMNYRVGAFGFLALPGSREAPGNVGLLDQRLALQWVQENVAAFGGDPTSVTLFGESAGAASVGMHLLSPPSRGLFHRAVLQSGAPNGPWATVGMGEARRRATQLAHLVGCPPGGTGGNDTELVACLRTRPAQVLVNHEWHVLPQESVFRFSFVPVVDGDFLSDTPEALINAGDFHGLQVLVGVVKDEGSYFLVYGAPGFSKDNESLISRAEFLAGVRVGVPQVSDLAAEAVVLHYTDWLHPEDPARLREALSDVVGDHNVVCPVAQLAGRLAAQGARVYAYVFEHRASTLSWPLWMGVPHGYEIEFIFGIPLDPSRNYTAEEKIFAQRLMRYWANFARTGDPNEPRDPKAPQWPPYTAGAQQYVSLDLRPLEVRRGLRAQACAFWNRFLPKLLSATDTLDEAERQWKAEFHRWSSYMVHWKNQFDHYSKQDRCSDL

[4] = biological target: T3, Cholinesterase (Homo sapiens, UniProt P06276); assay: as §1; settings: 1 µM
T3 sequence (P06276 whole entry): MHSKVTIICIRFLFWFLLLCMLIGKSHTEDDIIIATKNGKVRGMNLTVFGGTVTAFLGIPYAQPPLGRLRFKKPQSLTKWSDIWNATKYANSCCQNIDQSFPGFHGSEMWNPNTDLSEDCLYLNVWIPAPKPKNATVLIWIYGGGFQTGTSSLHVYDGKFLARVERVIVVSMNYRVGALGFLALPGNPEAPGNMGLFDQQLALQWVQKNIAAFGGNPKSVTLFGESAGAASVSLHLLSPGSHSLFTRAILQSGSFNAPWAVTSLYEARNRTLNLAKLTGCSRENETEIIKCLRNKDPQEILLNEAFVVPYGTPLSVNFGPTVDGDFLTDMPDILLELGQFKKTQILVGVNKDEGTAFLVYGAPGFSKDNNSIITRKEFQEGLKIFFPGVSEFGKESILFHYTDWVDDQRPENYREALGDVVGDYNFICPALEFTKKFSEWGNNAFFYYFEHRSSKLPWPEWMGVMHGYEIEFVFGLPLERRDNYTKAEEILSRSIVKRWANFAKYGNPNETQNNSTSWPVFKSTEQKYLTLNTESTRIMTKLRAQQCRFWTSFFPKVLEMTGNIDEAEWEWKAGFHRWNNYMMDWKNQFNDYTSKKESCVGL

[5] = biological target: T2, Acetylcholinesterase; assay: Inhibition of AChE (unknown origin) at 1 uM using acetylthiocholine iodide as substrate by Ellman's method relative to control
[6] = biological target: T2, Acetylcholinesterase; assay: Non-competitive inhibition of AChE (unknown origin) at 100 to 200 nM using acetylthiocholine as substrate by Ellman's method based Lineweaver-Burk plot analysis
[7] = species on record: Homo sapiens; assay: Selectivity index, ratio of IC50 for BuChE (unknown origin) to IC50 for AChE (unknown origin) using acetylthiocholine iodide as substrate
[8] = biological target: T3, Cholinesterase; assay: Inhibition of BuChE (unknown origin)

T1 sequence (P06276 whole entry): as above

Row | Structure (SMILES) | inhibition at 1 µM [2] [%] | IC50 [3] [nM] | inhibition (INH) [4] | inhibition [5] | other results
1 | Nc1c2c(nc3ccccc13)CCCC2 [TACRINE HYDROCHLORIDE] |  |  |  |  | inhibition at 0.02 µM [1]: 64.5%
2 | COc1ccccc1-c1ccc(/C=N/N2CC(=O)N(CCC3CCN(Cc4ccccc4)CC3)C2=O)o1 | 1.6 | 90.4 |  |  | 
3 | O=C1CN(/N=C/c2ccc(-c3cccc([N+](=O)[O-])c3)o2)C(=O)N1CCC1CCN(Cc2ccccc2)CC1 |  | 290 | Not Active |  | 
4 | O=C1CN(/N=C/c2ccc(-c3ccc([N+](=O)[O-])cc3)o2)C(=O)N1CCN1CCN(Cc2ccccc2)CC1 |  | 201 | Not Active | 67.9% | 
5 | COc1cccc(-c2ccc(/C=N/N3CC(=O)N(CCC4CCN(Cc5ccccc5)CC4)C3=O)o2)c1 | 3.8 | 47 |  |  | 
6 | O=C1CN(/N=C/c2ccc(-c3ccc([N+](=O)[O-])cc3)o2)C(=O)N1CCC1CCN(Cc2ccccc2)CC1 |  | 46.4 | Not Active | 91.3% | 
7 | O=C1CN(/N=C/c2ccc(-c3ccccc3[N+](=O)[O-])o2)C(=O)N1CCC1CCN(Cc2ccccc2)CC1 | 14.6 | 34.2 |  |  | inhibition [6]: Active; Ratio IC50 [7]: 130; IC50 [8]: 4470 nM
8 | O=C1CN(/N=C/c2ccc(-c3ccc([N+](=O)[O-])cc3)o2)C(=O)N1CC1CCN(Cc2ccccc2)CC1 |  |  |  | inactive | 
9 | O=C1CN(/N=C/c2ccc(-c3ccc([N+](=O)[O-])cc3)o2)C(=O)N1 |  |  |  | inactive | 
10 | COc1ccc(-c2ccc(/C=N/N3CC(=O)N(CCC4CCN(Cc5ccccc5)CC4)C3=O)o2)cc1 | 4.6 | 108 |  |  | 
